Measurements as given in PubChem BioAssay AID1208 (EPA DSSTox, 2008).
Active and inactive are the calls of the source.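 Rule for the calls: active = at least one rat sex group has a carcinogenic potency value and tumor site recorded; inconclusive = only rat studies were judged inadequate by the national testing program; inactive = no potency or tumor site, with negative rat experiments.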

Tested on: rat chronic carcinogenicity bioassay, TD50
Experiment: DSSTox (CPDBAS) Carcinogenic Potency Database Summary Rat Bioassay Results
Details: for Potency: hits give low values
Source text: The Carcinogenic Potency Database (CPDB) is a unique and widely used international resource of the results of over 6500 chronic, long-term animal cancer tests on over 1500 chemical substances. The CPDB provides easy access to the bioassay literature, with qualitative and quantitative analyses of both positive and negative experiments that have been published over the past 50 years in the general literature and by the National Cancer Institute/National Toxicology Program. The CPDB standardizes the diverse literature of cancer bioassays that vary widely in protocol, histopathological examination and nomenclature, and in the published author's choices of what information to provide in their papers. Results are reported in the CPDB for tests in rats, mice, hamsters, dogs, and nonhuman primates, and are based on the most positive result among all experiments for each sex-species. The DSSTox CPDBAS (all species) file incorporates data from the CPDB Summary Tables for the full list of over 1500 chemical substances tested in at least one species. Summary bioassay results for Rat (TD50, tumor sites, male, female, both sexes) are provided in the CPDB Summary Tables and the DSSTox CPDBAS file for over 1200 chemical substances.
TD50 is a standardized quantitative measure of carcinogenic potency (analogous to an LD50) and is reported in the CPDB Summary Table for each species. Activity Score for actives is computed by mapping of LOG10 (1/TD50_Rat_mmol) activity values spanning range [MIN, MAX] onto Integer 1-100 Activity Score range, where 100 is highest potency and 1 is lowest: Activity Score = 100 * INTEGER[(log10(1/Activity) - MIN)/(MAX - MIN)]. If activity is reported but no TD50_Rat_mmol value is computed, such as for a mixture, the Activity Score is assigned the activity value "50". […] Target sites are reported for each sex-species group with a positive result in the CPDB on the basis of a positive author's opinion for the particular site, using all results from both the general literature and NCI/NTP bioassays. If a chemical has two or more target sites listed, the results may be from different experiments, and a single site may be a target organ in more than one experiment, as well. Blank entry in TargetSites field indicates no results reported.

[1] = TD50_Rat_Note: no positive results
[2] = TD50_Rat_Note: no positive results, TargetSites_Rat_Female: no positive results
[3] = TargetSites_Rat_Female: no positive results
[4] = TD50_Rat_Note: TD50 is harmonic mean of more than one positive test, TargetSites_Rat_Female: lung
[5] = TD50_Rat_Note: TD50 is harmonic mean of more than one positive test, TargetSites_Rat_Female: liver
[6] = TD50_Rat_Note: TD50 is harmonic mean of more than one positive test, TargetSites_Rat_Female: stomach
[7] = TargetSites_Rat_BothSexes: all tumor bearing animals

CCSC[C@H](N)C(=O)O
outcome [1]: inactive; no positive results

C=C(F)F
outcome [2]: inactive; no positive results

C=CC(=C)Cl
Potency (TD50_Rat_Note: TD50 is harmonic mean of more than one positive test, TargetSites_Rat_Female: kidney, mammary gland, oral cavity, thyroid gland): 12.5 mg/kg/day
outcome [2]: inactive; no positive results

CCCCCl
outcome [2]: inactive; no positive results

CC(C)n1c(/C=C/[C@@H](O)C[C@@H](O)CC(=O)O)c(-c2ccc(F)cc2)c2ccccc21
Potency [3]: 125 mg/kg/day

ClCC(Cl)CCl
Potency (TD50_Rat_Note: TD50 is harmonic mean of more than one positive test, TargetSites_Rat_Female: clitoral gland, ear Zymbals gland, mammary gland, oral cavity, stomach): 1.35 mg/kg/day

O=[N+]([O-])c1ccc(-c2cscn2)o1
Potency (TargetSites_Rat_Female: mammary gland, stomach): 7.68 mg/kg/day

CN(C)CCN(Cc1ccsc1)c1ccccn1
outcome [2]: inactive; no positive results

CN1C2CC[C@@H]1CC(NC(=O)c1cc(Cl)cc3c1OC(C)(C)C3)C2 (some centres not stated)
outcome [2]: inactive; no positive results

Cc1noc(NS(=O)(=O)c2ccc(N)cc2)c1C
outcome [2]: inactive; no positive results

C1CO1
Potency (TD50_Rat_Note: TD50 is harmonic mean of more than one positive test, greater than ten-fold variation among TD50 values for positive res, TargetSites_Rat_Female: nervous system, stomach): 21.3 mg/kg/day

O=S1(=O)CCCO1
Potency (TD50_Rat_Note: TD50 is harmonic mean of more than one positive test, TargetSites_Rat_Female: hematopoietic system, mammary gland, nervous system, small intestine): 3.84 mg/kg/day

CC(C)CON=O
Potency [4]: 54.1 mg/kg/day

CC(C(O)c1ccccc1)N(C)N=O (configuration not stated)
Potency: 95.2 mg/kg/day

BrCCBr
Potency (TD50_Rat_Note: TD50 is harmonic mean of more than one positive test, TargetSites_Rat_Female: liver, lung, mammary gland, nasal cavity, pituitary gland, stomach, vascular system): 1.52 mg/kg/day

C#C[C@]1(OC(C)=O)CC[C@H]2[C@@H]3CCC4=CC(=O)CC[C@@H]4[C@H]3CC[C@@]21C
Potency (TD50_Rat_Note: TD50_Rat_mmol was not calculated for this mixture, but Activiity Score is assigned value of 50 to indicate active, TargetSites_Rat_BothSexes: liver, mammary gland, pituitary gland, uterus): 1.94 mg/kg/day

Nc1ccc([N+](=O)[O-])cc1
outcome [2]: inactive; no positive results

O=c1cc[nH]c(=S)[nH]1
Potency (TD50_Rat_Note: TD50 is harmonic mean of more than one positive test, TargetSites_Rat_Female: thyroid gland): 11.9 mg/kg/day

CC(N)=O
Potency [5]: 180 mg/kg/day

O=S(=O)([O-])[O-].[Cd+2]
Potency [4]: 0.0217 mg/kg/day

ClCOCCl
Potency: 0.00357 mg/kg/day

C=C1C[C@@]23CC[C@H]4[C@@](C)(CCC[C@@]4(C)C(=O)O[C@@H]4O[C@H](CO)[C@@H](O)[C@H](O)[C@H]4O)[C@@H]2CC[C@]1(O[C@@H]1O[C@H](CO)[C@@H](O)[C@H](O)[C@H]1O[C@@H]1O[C@H](CO)[C@@H](O)[C@H](O)[C@H]1O)C3
outcome [2]: inactive; no positive results

O=[N+]([O-])c1cccc2cccnc12
Potency [6]: 9.82 mg/kg/day

Clc1ccccc1
Potency [3]: 247 mg/kg/day

CN(N=O)c1cccnc1
outcome [2]: inactive

O=C1C2CC=CCC2C(=O)N1SC(Cl)(Cl)Cl (configuration not stated)
Potency (TD50_Rat_Note: TD50 is harmonic mean of more than one positive test, TargetSites_Rat_Female: uterus): 2080 mg/kg/day

O=NN1CC=CCO1
Potency [7]: 90.6 mg/kg/day

COC(=O)C1=C(C)NC(C)=C(C(=O)OCCN2CCN(C(c3ccccc3)c3ccccc3)CC2)C1c1cccc([N+](=O)[O-])c1 (configuration not stated)
outcome [2]: inactive; no positive results

CCCCCCCC/C=C\CCCCCCCC(=O)O
outcome [2]: inactive; no positive results

O=C1c2ccccc2C(=O)N1SC(Cl)(Cl)Cl
outcome [2]: inactive; no positive results

CCCNC(=O)NS(=O)(=O)c1ccc(Cl)cc1
outcome [2]: inactive; no positive results

C1CC2OC2CC1C1CO1 (configuration not stated)
outcome [2]: inactive

O=C1O[C@H]([C@H](O)CO)C(O)=C1O
outcome [2]: inactive; no positive results

COc1ccc(N)cc1N
Potency (TD50_Rat_Note: TD50 is harmonic mean of more than one positive test, TargetSites_Rat_Female: clitoral gland, ear Zymbals gland, mammary gland, thyroid gland): 183 mg/kg/day

CC(=O)O[C@H]1CC[C@@]2(C)C(=CC[C@@H]3[C@@H]2CC[C@]2(C)C(=O)CC[C@@H]32)C1
Potency [5]: 49.6 mg/kg/day

NC(Cc1c[nH]c2ccccc12)C(=O)O (configuration not stated)
outcome [1]: inactive; no positive results

O=C(O)CC[N+](=O)[O-]
outcome [2]: inactive; no positive results

O=C1OC(c2ccc(O)cc2)(c2ccc(O)cc2)c2ccccc21
Potency (TD50_Rat_Note: TD50 is harmonic mean of more than one positive test, TargetSites_Rat_Female: adrenal gland): 902 mg/kg/day

O=NN1CCCC1c1ccc[n+]([O-])c1 (configuration not stated)
Potency (TD50_Rat_Note: TD50 is harmonic mean of more than one positive test, TargetSites_Rat_Female: esophagus, nasal cavity): 0.876 mg/kg/day

CCN(CC)C(=O)Nc1ccc(OCC(O)CNC(C)(C)C)c(C(C)=O)c1 (configuration not stated)
outcome [2]: inactive; no positive results

Cc1ccc(C)c(OCCCC(C)(C)C(=O)O)c1
Potency [2]: 247 mg/kg/day

C[C@]12C/C(=C/O)C(=O)C[C@@H]1CC[C@@H]1[C@@H]2CC[C@@]2(C)[C@H]1CC[C@]2(C)O
Potency (TargetSites_Rat_Female: liver, lung, skin): 66.9 mg/kg/day

Cn1cc(C(=O)[C@@H]2CCc3nc[nH]c3C2)c2ccccc21
outcome [2]: inactive; no positive results

NC(N)=Nc1nc(CSCCNc2nsnc2N)cs1
Potency [6]: 4990 mg/kg/day

CC(=O)N[C@@H](CS)C(=O)O
outcome [1]: inactive; no positive results

NNc1nc(-c2ccccc2)cs1
outcome [2]: inactive

NC(=O)N(CCF)N=O
Potency: 0.125 mg/kg/day

O
outcome [2]: inactive; no positive results

CCCCCCN(N=O)C(N)=O
Potency (TD50_Rat_Note: TD50 is harmonic mean of more than one positive test, harmonic mean of TD50 includes a value for upper 99% confidence li, TargetSites_Rat_Female: lung, mammary gland, stomach, uterus): 0.513 mg/kg/day

C[N+](C)(C)CCO
outcome [1]: inactive; no positive results

CCCCCC(/C=C/C=C\CCCCCCCC(=O)OC)OO (configuration not stated)
outcome [1]: inactive; no positive results

C[C@@H]1CC2(O[C@@H]2C)C(=O)O[C@@H]2CCN(C)C/C=C(/COC(=O)[C@]1(C)O)C2=O (some centres not stated)
Potency (TD50_Rat_Note: TD50 is harmonic mean of more than one positive test, TargetSites_Rat_Female: liver, vascular system): 0.922 mg/kg/day

Cc1ccc(O)c(C(C)(C)C)c1
outcome [1]: inactive; no positive results

CC(CN1c2ccccc2Sc2ccccc21)N(C)C (configuration not stated)
outcome [2]: inactive; no positive results

NC(N)=S
Potency (TD50_Rat_Note: TD50 is harmonic mean of more than one positive test, TargetSites_Rat_Female: no positive results): 98.5 mg/kg/day

COC(C)(C)C
Potency (TD50_Rat_Note: TD50 is harmonic mean of more than one positive test, TargetSites_Rat_Female: hematopoietic system): 702 mg/kg/day

CN(N=O)c1ccc(/C=C/c2ccnc3ccccc23)cc1
Potency [5]: 0.699 mg/kg/day

ClCC(Cl)(Cl)Cl
outcome [2]: inactive; no positive results

CN(C)C(=O)Nc1cccc(C(F)(F)F)c1
outcome [2]: inactive; no positive results

C=CCl
Potency (TD50_Rat_Note: TD50 is harmonic mean of more than one positive test, greater than ten-fold variation among TD50 values for positive res, TargetSites_Rat_Female: ear Zymbals gland, kidney, liver, mammary gland, nasal cavity, nervous system, vascular system): 6.11 mg/kg/day

O=P(=O)O
outcome [2]: inactive; no positive results

N[C@@H](CCC(=O)O)C(=O)O
outcome [2]: inactive; no positive results

O=[N+]([O-])c1cccc2ccccc12
outcome [2]: inactive; no positive results

NS(=O)(=O)c1cc(C(=O)O)c(NCc2ccco2)cc1Cl
outcome [2]: inactive; no positive results

Cc1cccn2c1nc1ccc(N)nc12
Potency (TD50_Rat_Note: TD50 is harmonic mean of more than one positive test, TargetSites_Rat_Female: clitoral gland, ear Zymbals gland, large intestine, liver, nervous system, small intestine): 4.69 mg/kg/day

OC(Cn1cncn1)(Cn1cncn1)c1ccc(F)cc1F
Potency [3]: 80.7 mg/kg/day

CCCN(N=O)C(=N)N[N+](=O)[O-]
Potency (TD50_Rat_Note: TD50 is harmonic mean of more than one positive test): 1.31 mg/kg/day

[O]=[Mo](=[O])=[O]
outcome [2]: inactive; no positive results

C=CCOc1ccc(CC(=O)O)cc1Cl
outcome [2]: inactive; no positive results

S=C([S-])NCCNC(=S)[S-].[Zn+2]
outcome [2]: inactive; no positive results
Potency [7]: 255 mg/kg/day

CCCc1ccc2c(c1)OCO2
Potency (TargetSites_Rat_BothSexes: esophagus): 143 mg/kg/day

Cc1ncc([N+](=O)[O-])n1C
Potency (TargetSites_Rat_Female: mammary gland): 17 mg/kg/day

O=c1cc[nH]c(=O)[nH]1
Potency (TD50_Rat_Note: TD50 is harmonic mean of more than one positive test, greater than ten-fold variation among TD50 values for positive res, TargetSites_Rat_Female: urinary bladder): 671 mg/kg/day

C=C(C)C#N
outcome [2]: inactive; no positive results

CCC(O)OC(O)CC (configuration not stated)
outcome [2]: inactive; no positive results
